PMC10382042, “Brevetoxin versus Brevenal Modulation of Human Nav1 Channels” (Marine Drugs, 2023)
Where “and” joins values, the source holds several entries; their conditions need not be identical. Identical values can stand only once. Like-named read-outs stand apart in the source and are kept apart here.

Columns and labels:
Type in all cases: cell-based
human Nav1.2 = human Nav1.2 (Homo sapiens, UniProt Q99250); assay: Automated patch-clamp, concentration-response and inactivation fits, Nav1.2 in HEK293; settings: for Nav1.2 yinf: single exponential fit
Sequence of human Nav1.2 (Q99250 whole entry): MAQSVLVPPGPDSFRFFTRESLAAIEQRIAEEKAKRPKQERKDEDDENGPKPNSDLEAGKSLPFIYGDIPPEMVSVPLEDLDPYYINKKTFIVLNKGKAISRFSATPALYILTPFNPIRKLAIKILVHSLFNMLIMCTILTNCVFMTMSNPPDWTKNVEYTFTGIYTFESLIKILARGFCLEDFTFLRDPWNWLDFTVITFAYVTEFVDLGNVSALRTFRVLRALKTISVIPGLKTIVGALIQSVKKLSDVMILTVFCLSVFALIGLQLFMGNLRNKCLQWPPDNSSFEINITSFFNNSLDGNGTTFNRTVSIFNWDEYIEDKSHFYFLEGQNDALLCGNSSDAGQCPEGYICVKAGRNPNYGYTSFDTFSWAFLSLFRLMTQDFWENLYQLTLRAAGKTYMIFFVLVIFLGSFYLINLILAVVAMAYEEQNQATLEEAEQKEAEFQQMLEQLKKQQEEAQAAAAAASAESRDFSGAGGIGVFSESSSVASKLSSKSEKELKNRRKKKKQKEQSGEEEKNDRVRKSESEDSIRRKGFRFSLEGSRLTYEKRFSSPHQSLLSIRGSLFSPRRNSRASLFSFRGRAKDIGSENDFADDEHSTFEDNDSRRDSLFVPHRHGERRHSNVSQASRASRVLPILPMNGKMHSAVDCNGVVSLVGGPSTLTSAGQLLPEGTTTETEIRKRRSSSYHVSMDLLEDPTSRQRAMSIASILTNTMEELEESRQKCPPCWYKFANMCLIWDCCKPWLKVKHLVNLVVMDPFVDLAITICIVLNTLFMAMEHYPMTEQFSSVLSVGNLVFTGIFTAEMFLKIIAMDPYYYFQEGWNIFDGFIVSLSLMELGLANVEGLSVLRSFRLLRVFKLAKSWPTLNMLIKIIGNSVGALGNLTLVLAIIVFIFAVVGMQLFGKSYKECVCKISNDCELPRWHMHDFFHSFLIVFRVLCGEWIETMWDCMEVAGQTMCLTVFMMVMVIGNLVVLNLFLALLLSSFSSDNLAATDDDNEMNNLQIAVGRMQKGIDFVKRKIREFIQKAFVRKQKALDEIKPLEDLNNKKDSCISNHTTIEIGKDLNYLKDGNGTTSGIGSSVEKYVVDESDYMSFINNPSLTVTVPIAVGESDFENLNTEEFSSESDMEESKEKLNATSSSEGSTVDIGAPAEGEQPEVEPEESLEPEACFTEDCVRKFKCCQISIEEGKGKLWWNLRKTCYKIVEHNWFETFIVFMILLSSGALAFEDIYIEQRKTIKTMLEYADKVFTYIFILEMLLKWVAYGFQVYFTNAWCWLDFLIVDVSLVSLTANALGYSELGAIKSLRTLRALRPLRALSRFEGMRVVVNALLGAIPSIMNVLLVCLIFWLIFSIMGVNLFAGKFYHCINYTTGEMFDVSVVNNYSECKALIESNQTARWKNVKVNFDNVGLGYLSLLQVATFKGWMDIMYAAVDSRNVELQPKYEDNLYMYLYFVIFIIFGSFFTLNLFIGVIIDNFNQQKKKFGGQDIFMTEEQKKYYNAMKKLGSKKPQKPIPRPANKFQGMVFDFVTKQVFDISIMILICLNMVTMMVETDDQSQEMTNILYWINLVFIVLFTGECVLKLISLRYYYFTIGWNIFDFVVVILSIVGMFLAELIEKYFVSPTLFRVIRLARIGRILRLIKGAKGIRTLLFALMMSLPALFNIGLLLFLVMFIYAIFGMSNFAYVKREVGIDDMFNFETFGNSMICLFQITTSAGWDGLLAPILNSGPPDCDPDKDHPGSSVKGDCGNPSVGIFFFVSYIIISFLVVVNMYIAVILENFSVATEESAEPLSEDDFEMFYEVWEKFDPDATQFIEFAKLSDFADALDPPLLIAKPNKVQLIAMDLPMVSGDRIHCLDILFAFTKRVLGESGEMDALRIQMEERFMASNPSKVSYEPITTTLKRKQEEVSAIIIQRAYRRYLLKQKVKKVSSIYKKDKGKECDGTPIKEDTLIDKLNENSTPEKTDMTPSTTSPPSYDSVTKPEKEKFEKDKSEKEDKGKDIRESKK
Description: (§1) Functional modulation of recombinant human voltage-gated sodium (Nav) channels exposed to marine PbTx-3 and brevenal was assessed by automated patch-clamp electrophysiology. Neuronal Nav1.2 (CNS) and Nav1.7 (PNS), in addition to muscle Nav1.4 (skeletal) and Nav1.5 (cardiac) sodium channels, were patch-clamped in mammalian cells. Whole-cell currents mediated by human Nav1.4 and Nav1.7 overexpressed in CHO-K1 cells, as well as human Nav1.2 and Nav1.5 overexpressed in HEK293 cells, were recorded at room temperature. Currents were elicited by 25 ms test pulses to −20 mV from a holding potential (Vh) of −120 mV, delivered for 5 min at 0.1 Hz, after each full-bath solution exchange to allow current amplitude and kinetics to reach a steady state.
(§2) Current traces were scaled to maximal Ipeak and are presented as insets in Figure 2 to underline the effects (or lack thereof) of PbTx-3 and brevenal on the current kinetics of the four Nav isoforms studied. Inactivation time constants (τinact) in control and the presence of PbTx-3 and brevenal were estimated by exponential fits (see Methods) to the current decay between 15% and 85% of the depolarizing pulse. Single exponential fits adequately described τinact for the neuronal and the skeletal muscle Nav isoforms, whereas a double exponential fit was required to approximate open channel inactivation of the cardiac Nav current. Consistent with the enhancement of Ilate observed for Nav1.2, Nav1.4, and Nav1.5 in the presence of PbTx-3, significant concentration-dependent increases in the Yinf asymptote were detected (Tables S1–S3). These were mirrored by brevenal exposure in Nav1.2- and Nav1.4-mediated currents. Nevertheless, the estimated τinacts appeared insensitive to PbTx-3 and brevenal modification, with the notable exception of Nav1.4, for which high concentrations of PbTx-3 and brevenal caused a measurable slowing of the open channel inactivation time constant (Table S2).
(§3) Recording solutions: The extracellular solution contained (in mM) 140 NaCl, 5 KCl, 2 CaCl2, 2 MgCl2, 10 glucose, and 10 HEPES (pH 7.4 with NaOH, 298 ± 3 mOsmol/k g). Control intracellular solution (in mM): 60 CsF, 70 CsCl, 10 EGTA, 10 glucose, and 10 HEPES (pH 7.2 with CsOH, 285 ± 3 mOsmol/kg). Intracellular exposure to brevenal (1 μM) was achieved by including it in the control intracellular solution during chip filling.
(§4) HEK293 cells heterologously expressing human Nav1.2 (Scottish Biomedical, a kind gift from the Petrous lab, Florey Institute of Neuroscience and Mental Health, Melbourne, VIC Australia) and Nav1.5 (ChanTest Corp., Cleveland, OH, USA) were cultured in DMEM containing 10% v/v FBS and selection antibiotics to enable stable expression as per the manufacturer’s recommendation. CHOK1 expressing Nav1.4 and Nav1.7 (ChanTest) was cultured in DMEM/F12 containing 10% v/v FBS and selection antibiotics supporting stable expression as recommended by the manufacturer. Cells were maintained in a humidified 5% CO2 incubator at 37 °C, grown in T25 flasks to 70–80% confluence, and passaged every 3–4 days using TrypLE Express (Invitrogen). After harvesting with TrypLE, cells were resuspended to 10^5 cells/mL in cold extracellular solution and allowed to recover for 30 min at 4 °C before recording.
(§5) Electrophysiology: Automated patch-clamp (APC) recordings were performed in a PatchLiner Octo (Nanion Technologies GmbH, Munich, Germany) equipped with two EPC-10 quadro patch-clamp amplifiers (HEKA Electronik, Lambrecht/Pfalz, Germany). PatchControl HT (Nanion) was used for cell capture, seal formation, and establishment of the whole-cell configuration, whilst voltage was controlled and currents were sampled with PatchMaster (HEKA Electronics). Recordings were performed under the whole-cell configuration using single-hole planar medium resistance NPC-16 chips (Rchip, resistance of ~2.5 MΩ) at room temperature (22–24 °C).
(§6) Cells between passages 6 and 12 were used. […]

human Nav1.4 [1] = biological target: T1, human Nav1.4 (Homo sapiens, UniProt P35499); assay: Automated patch-clamp, concentration-response and inactivation fits, Nav1.4 in CHO-K1; settings: for Nav1.4 yinf / Nav1.4 τ inact: n = 4
T1 sequence (P35499 whole entry): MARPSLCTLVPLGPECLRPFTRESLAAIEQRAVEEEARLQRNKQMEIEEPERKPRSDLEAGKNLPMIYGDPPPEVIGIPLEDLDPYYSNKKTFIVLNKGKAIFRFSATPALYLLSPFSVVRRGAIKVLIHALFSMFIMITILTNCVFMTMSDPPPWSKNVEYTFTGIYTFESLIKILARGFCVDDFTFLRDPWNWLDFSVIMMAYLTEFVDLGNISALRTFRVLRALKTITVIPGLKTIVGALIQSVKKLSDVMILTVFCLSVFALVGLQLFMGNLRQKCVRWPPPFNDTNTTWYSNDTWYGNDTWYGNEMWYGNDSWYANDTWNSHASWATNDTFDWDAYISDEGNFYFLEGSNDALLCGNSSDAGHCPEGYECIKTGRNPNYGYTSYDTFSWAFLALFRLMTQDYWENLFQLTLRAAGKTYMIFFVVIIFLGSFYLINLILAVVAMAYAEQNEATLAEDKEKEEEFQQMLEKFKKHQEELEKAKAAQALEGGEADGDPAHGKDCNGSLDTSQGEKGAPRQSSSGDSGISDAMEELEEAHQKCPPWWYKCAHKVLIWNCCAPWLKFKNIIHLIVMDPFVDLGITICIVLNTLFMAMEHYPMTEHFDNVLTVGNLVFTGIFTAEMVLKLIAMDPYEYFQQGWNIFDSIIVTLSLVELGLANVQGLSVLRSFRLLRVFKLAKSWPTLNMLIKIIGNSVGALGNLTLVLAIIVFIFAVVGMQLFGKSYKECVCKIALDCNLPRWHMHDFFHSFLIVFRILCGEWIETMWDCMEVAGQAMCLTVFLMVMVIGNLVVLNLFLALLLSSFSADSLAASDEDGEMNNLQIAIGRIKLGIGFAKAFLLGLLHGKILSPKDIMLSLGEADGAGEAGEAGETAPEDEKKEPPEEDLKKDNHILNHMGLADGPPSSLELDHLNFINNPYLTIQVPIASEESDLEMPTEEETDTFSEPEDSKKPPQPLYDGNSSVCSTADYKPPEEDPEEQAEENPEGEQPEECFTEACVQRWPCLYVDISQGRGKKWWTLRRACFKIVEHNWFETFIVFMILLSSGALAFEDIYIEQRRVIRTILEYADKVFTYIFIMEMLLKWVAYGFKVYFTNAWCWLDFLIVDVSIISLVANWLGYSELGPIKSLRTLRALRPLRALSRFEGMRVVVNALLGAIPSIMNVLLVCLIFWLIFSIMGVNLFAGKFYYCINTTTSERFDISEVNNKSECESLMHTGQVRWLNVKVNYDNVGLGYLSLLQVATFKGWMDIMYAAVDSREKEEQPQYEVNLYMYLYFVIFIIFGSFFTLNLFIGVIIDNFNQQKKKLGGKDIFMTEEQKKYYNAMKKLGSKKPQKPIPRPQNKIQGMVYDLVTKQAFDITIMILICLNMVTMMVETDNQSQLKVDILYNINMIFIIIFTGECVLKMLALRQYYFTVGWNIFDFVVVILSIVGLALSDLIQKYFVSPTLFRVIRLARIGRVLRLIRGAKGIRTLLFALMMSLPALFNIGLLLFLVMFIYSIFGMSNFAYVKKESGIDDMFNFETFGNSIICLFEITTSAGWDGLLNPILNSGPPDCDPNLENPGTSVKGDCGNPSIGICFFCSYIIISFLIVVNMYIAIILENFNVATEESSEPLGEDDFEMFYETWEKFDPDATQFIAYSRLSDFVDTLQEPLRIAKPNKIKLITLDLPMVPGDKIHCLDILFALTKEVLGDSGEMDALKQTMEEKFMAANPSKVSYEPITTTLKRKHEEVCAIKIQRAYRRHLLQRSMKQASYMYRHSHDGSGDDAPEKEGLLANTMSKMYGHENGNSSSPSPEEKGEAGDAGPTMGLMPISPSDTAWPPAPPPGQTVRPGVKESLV
Description: as §1, §2, §3, §4, §5, §6

human Nav1.4 [2] = biological target: T1, human Nav1.4; assay: Automated patch-clamp I-V relationship (voltage dependence of activation, Gmax), Nav1.4
Description: (§7) The voltage dependence of recombinant Nav channel-mediated currents exposed to PbTx-3 and brevenal was evaluated using current–voltage (I-V) relationships built for Ipeak and Ilate elicited by a standard stimulation protocol (25 ms, −100 to +60 mV, Vh −120 mV, 0.1 Hz).
[…] […] To investigate the possibility of overlapping binding of these compounds within Nav channels, Nav whole-cell currents were recorded using an intracellular solution supplemented with brevenal (Brevenali = 1 μM). After equilibration, extracellular PbTx-3o (1 μM) was applied and its modulatory effects over the current kinetics and voltage dependence of activation were compared.
(§8) Figure 4 and Figure 5 display representative current traces mediated by human recombinant Nav channels in control and upon exposure to PbTx-3 and brevenal. I-V plots from the normalized peak and late (when present) currents amplitudes (Ipeak/Ipeak^max and Ilate/Ipeak^max) were fitted to a Boltzmann function rendering the half-maximal activation potential (V0.5) and normalized macroscopic conductance (Gmax) parameters (see Section 4). The changes in V0.5 (ΔV0.5 = V0.5^Comp − V0.5^Ctr) and relative Gmax (Gmax^Rel = Gmax^Comp/Gmax^Ctr) observed in the presence of PbTx-3 and brevenal and control conditions were then calculated and compared for all assayed conditions.
as §3, §5
(§9) Peak I–V curves were fitted using:I(V) = (V − Vrev) × Gmax/(1 + exp ((V0.5 − V)/Vslope) where I is the macroscopic current, V is the command potential, Vrev is the reversal potential (mV), Gmax is the maximal conductance, V0.5 is the half-activation potential (mV), and Vslope is the slope factor (mV/e-fold).

human Nav1.5 = human Nav1.5 (Homo sapiens, UniProt Q14524); assay: Automated patch-clamp I-V relationship (voltage dependence of activation, Gmax), Nav1.5
Description: as §7
The effects of extracellular exposure to PbTx-3 (PbTx-3o = 1 μM) and brevenal (Brevenalo = 10 μM) on the activation of Nav channels in neuronal and muscle cells were examined under normal intracellular ionic conditions. […] To investigate the possibility of overlapping binding of these compounds within Nav channels, Nav whole-cell currents were recorded using an intracellular solution supplemented with brevenal (Brevenali = 1 μM). After equilibration, extracellular PbTx-3o (1 μM) was applied and its modulatory effects over the current kinetics and voltage dependence of activation were compared.
as §8, §3, §5, §9

[3] = test pulse −20 mV, Vh −120 mV, extracellular, n = 5

C=C/C=C\CC[C@H]1O[C@H]2CC[C@@]3(C)O[C@H]4[C@@H](O)C[C@@]5(C)O[C@@H](CC/C=C(C)/C(C)=C/C=O)[C@@H](C)C[C@H]5O[C@@H]4C[C@@H]3O[C@@H]2CC[C@@]1(C)O [Brevenal]
Nav1.2 τ inact (human Nav1.2; 10^-5 M, n = 4): 0.75 ± 0.10 ms
Nav1.2 yinf (human Nav1.2; 10^-5 M, n = 4): 0.12±0.06
Nav1.2 τ inact (human Nav1.2; 10^-6 M, n = 4): 0.65 ± 0.08 ms
Nav1.2 yinf (human Nav1.2; 10^-6 M, n = 4): 0.10±0.07
Nav1.2 τ inact (human Nav1.2; 10^-9 M, n = 4): 0.74 ± 0.8 ms
Nav1.2 yinf (human Nav1.2; 10^-9 M, n = 4): 0.08±0.04
EC50 (human Nav1.2; inhibition of peak current, −20 mV, Vh −120 mV, n = 5, read-out: Nav1.2 Ipeak EC50): 18 nM
Nav1.2 Ipeak FC^Max (maximal fold change) (human Nav1.2; [3]): 0.6 ± 0.1
Nav1.4 yinf (human Nav1.4 [1]; 10^-5 M): 0.19±0.03
Nav1.4 τ inact (human Nav1.4 [1]; 10^-5 M): 1.16 ± 0.15 ms
Nav1.4 yinf (human Nav1.4 [1]; 10^-6 M): 0.14±0.03
Nav1.4 yinf (human Nav1.4 [1]; 10^-9 M): 0.09±0.01
Nav1.4 τ inact (human Nav1.4 [1]; 10^-9 M): 0.71 ± 0.11 ms
fold lower potency than PbTx-3 at enhancing Nav1.4-mediated Ilate (human Nav1.4 [1]; Brevenal EC50 vs PbTx-3 EC50): ~ 25 fold
EC50 (human Nav1.4 [1]; enhancement of late current, −20 mV, Vh −120 mV, n = 5, read-out: Nav1.4 Ilate EC50): 100 nM
EC50 (human Nav1.4 [1]; inhibition of peak current, −20 mV, Vh −120 mV, n = 5, read-out: Nav1.4 Ipeak EC50): 7.7 nM
Nav1.4 Ilate FC^Max (maximal fold change) (human Nav1.4 [1]; [3]): 4.1 ± 0.8
Nav1.4 Ipeak FC^Max (maximal fold change) (human Nav1.4 [1]; [3]): 0.1 ± 0.1
Nav1.4 Ilate FC^Max (maximal fold change) (human Nav1.4 [1]; test pulse −20 mV, Vh −120 mV, extracellular, n = 5, listed as brevenal): 4.1
inhibition of Nav1.4 Gmax (human Nav1.4 [2]; Brevenalo 1 μM): ~ 70%
Gmax^Rel of Nav1.4 (human Nav1.4 [2]; Brevenalo 1 μM, n = 7): 0.3 ± 0.02
depolarizing shift in V0.5 of Nav1.4 (human Nav1.4 [2]; Brevenalo 1 μM, n = 7): 4.9 ± 1.1 mV
Nav1.4 V0.5 (human Nav1.4 [2]; Ctro:Brevenali, n = 4, control −31.8 ± 0.5 mV): −26.4 ± 2.8 mV
right shift of Nav1.4 activation vs control intracellular (human Nav1.4 [2]; brevenal 1 μM in the intracellular solution): ~ 5 mV
ΔV0.5 of Nav1.5 activation (human Nav1.5; Brevenalo 10 μM, n = 7): 0.1 ± 1.4 mV
relative Gmax of Nav1.5 (human Nav1.5; brevenal 10 μM extracellular, n = 7): 0.3 ± 0.1

C=C(CO)C[C@@H]1C[C@H](O)[C@]2(C)OC3CC4OC5C[C@]6(C)O[C@]7(C)CCC8OC9C[C@]%10(C)OC%11C(C)=CC(=O)OC%11CC%10OC9C[C@@H](C)C8OC7CC6O[C@@]5(C)C/C=C\C4OC3CC2O1 (stereo partly drawn) [PbTx-3, Brevetoxin PbTx-3]
Nav1.2 Ilate FC^Max (maximal fold change) (human Nav1.2): 3.0 ± 0.1
Nav1.2 τ inact (human Nav1.2): 0.88 ± 0.1 ms and 0.76 ± 0.05 ms and 0.64 ± 0.14 ms
EC50 (human Nav1.2; read-out: Nav1.2 Ilate EC50): 0.0053 nM
Nav1.4 Ipeak FC^Max (maximal fold change) (human Nav1.4 [1]): 0.03 ± 0.03
EC50 (human Nav1.4 [1]; read-out: EC50, enhancement of Nav1.4-mediated Ilate): 4 nM
EC50 (human Nav1.4 [1]; read-out: Nav1.4 Ilate EC50): 4.1 nM
EC50 (human Nav1.4 [1]; read-out: Nav1.4 Ipeak EC50): 0.91 nM
Gmax^Rel of Nav1.4 (human Nav1.4 [2]): 0.3 ± 0.05 and 0.4 ± 0.1
hyperpolarizing shift in V0.5 of Nav1.4 (human Nav1.4 [2]): 9.2 ± 1.5 mV
inhibition of Nav1.4 Gmax (human Nav1.4 [2]): ~ 70%
inhibition of Nav1.4 Ipeak (human Nav1.4 [2]): completely inhibited
ΔV0.5 of Nav1.4 activation (human Nav1.4 [2]): 3.1 ± 2.6 mV
Gmax^Rel of Nav1.5 (human Nav1.5): 1.2 ± 0.1
depolarizing shift in V0.5 of Nav1.5 (human Nav1.5): 8.7 ± 1.2 mV
depolarizing shift ΔV0.5 of Nav1.5 (human Nav1.5): 10.8 ± 2.0 mV
relative Gmax of Nav1.5 (human Nav1.5): 0.4 ± 0.04
